Assay results as given in patent publication US11964953B2, “Substituted aminothiazoles as DGKzeta inhibitors for immune activation” (Bayer Aktiengesellschaft, priority 2020, dated 2024).

Each compound was assayed against human DGKζ (Homo sapiens (Human), UniProt Q13574) (assay: Human DGKζ kinase activity inhibition assay (ADP-Glo)). Details: in vitro human DGKζ kinase activity inhibition assay; read-out: IC50.
Sequence of human DGKζ (Q13574 other isoform, or with tags, fused parts or gaps): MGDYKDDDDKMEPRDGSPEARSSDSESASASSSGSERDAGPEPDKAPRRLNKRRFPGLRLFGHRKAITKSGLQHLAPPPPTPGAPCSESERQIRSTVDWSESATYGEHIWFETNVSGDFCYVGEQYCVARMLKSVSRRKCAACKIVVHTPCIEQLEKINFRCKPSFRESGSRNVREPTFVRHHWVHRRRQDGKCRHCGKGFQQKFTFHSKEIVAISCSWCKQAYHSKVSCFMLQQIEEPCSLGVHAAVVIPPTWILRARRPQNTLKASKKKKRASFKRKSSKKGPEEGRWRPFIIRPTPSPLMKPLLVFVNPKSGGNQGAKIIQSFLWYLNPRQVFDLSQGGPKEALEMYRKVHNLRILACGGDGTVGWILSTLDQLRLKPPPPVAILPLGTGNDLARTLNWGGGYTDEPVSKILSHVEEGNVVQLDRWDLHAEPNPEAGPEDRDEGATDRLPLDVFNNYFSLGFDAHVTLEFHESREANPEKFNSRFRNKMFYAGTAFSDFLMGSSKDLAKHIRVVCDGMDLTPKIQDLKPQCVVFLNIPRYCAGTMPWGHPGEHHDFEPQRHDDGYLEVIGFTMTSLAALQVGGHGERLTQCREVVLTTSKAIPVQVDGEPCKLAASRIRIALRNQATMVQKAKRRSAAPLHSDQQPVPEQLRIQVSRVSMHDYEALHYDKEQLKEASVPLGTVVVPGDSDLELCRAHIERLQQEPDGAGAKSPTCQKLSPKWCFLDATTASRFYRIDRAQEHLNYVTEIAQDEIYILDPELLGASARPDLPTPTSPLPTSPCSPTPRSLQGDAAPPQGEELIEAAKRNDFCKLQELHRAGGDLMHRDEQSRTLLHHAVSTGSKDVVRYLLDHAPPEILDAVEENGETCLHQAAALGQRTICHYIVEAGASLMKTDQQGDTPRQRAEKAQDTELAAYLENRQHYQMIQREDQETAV
Format: biochemical
Procedure, shortened: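 ADP-Glo luminescence, reflecting ADP produced, served as the readout of activity. Full-length human DGKζ, FLAG-tagged at the C-terminus and insect-cell expressed, was used; lipid substrate mix was sonicated with octyl-β-D-glucopyranoside in 50 mM MOPS pH 7.4.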
`CC(C(N)=O)N(c1ccc(F)cc1)c1nc(N)c(C(=O)c2ccc(Br)cc2)s1` (racemic) [Example 80, rac-2-(N-[4-amino-5-(4-bromobenzoyl)thiazol-2-yl]-4-fluoro-anilino)propanamide] was tested, and the IC50 was 0.0108 µM.
`CC(C(N)=O)N(c1ccc(F)cc1)c1nc(N)c(C(=O)c2ccc(C(F)F)nc2)s1` (racemic) [Example 159, rac-2-(N-[4-amino-5-[6-(difluoromethyl)pyridine-3-carbonyl]thiazol-2-yl]-4-fluoro-anilino)propanamide] was tested, and the IC50 was 0.214 µM.
`COc1ccc(C(=O)c2sc(N(c3ccc(OC(F)F)c(Cl)c3)C(C)C(N)=O)nc2N)cc1` (racemic) [Example 200, rac-2-[N-[4-amino-5-(4-methoxybenzoyl)thiazol-2-yl]-3-chloro-4-(difluoromethoxy)anilino]propanamide] gave an IC50 of 0.07 µM.
`CC(C(N)=O)N(c1ccc(F)cc1)c1nc(N)c(C(=O)c2ccc(F)c(F)c2)s1` (racemic) [Example 25, rac-2-(N-[4-amino-5-(3,4-difluorobenzoyl)thiazol-2-yl]-4-fluoro-anilino)propanamide] gave an IC50 of 0.101 µM.
In the case of `CC(C(N)=O)N(c1ccc(F)cc1)c1nc(N)c(C(=O)c2ccc(N3CCC(C)(C#N)CC3)nc2)s1` (single isomer, unassigned; enantiomer 2) [Example 285.2, 2-(N-[4-amino-5-[6-(4-cyano-4-methyl-1-piperidyl)pyridine-3-carbonyl]thiazol-2-yl]-4-fluoro-anilino)propanamide (enantiomer 2)], the IC50 is reported as 0.432 µM.
In the case of `CC(C(N)=O)N(c1ccncc1)c1nc(N)c(C(=O)c2ccccc2)s1` (racemic) [Example 189, rac-2-[(4-amino-5-benzoyl-thiazol-2-yl)-(4-pyridyl)amino]propanamide], the IC50 is reported as 6.35 µM.
`CC(C(N)=O)N(c1ccc2c(c1)OC(F)(F)O2)c1nc(N)c(C(=O)c2ccncc2)s1` (racemic) [Example 215, rac-2-[[4-amino-5-(pyridine-4-carbonyl)thiazol-2-yl]-(2,2-difluoro-1,3-benzodioxol-5-yl)amino]propanamide] was tested, and the IC50 was 0.279 µM.
With `CONC(=O)COc1ccc(C(=O)c2sc(N(c3ccc(F)cc3)C(C)C(N)=O)nc2N)cc1` (racemic) [Example 102, rac-2-(N-[4-amino-5-[4-[2-(methoxyamino)-2-oxo-ethoxy]benzoyl]thiazol-2-yl]-4-fluoro-anilino)propanamide] the IC50 was 0.506 µM.
With `CC(C(N)=O)N(c1ccc(F)cc1)c1nc(N)c(C(=O)c2ccc(C(=O)NC3CCCCC3)cc2)s1` (racemic) [Example 260, rac-4-[4-amino-2-(N-(2-amino-1-methyl-2-oxo-ethyl)-4-fluoro-anilino)thiazole-5-carbonyl]-N-cyclohexyl-benzamide] the IC50 was 0.029 µM.
`CC(C(N)=O)N(c1ccc(OC(F)F)nc1)c1nc(N)c(C(=O)c2ccc(Cl)cc2)s1` (racemic) [Example 253, rac-2-[[4-amino-5-(4-chlorobenzoyl)thiazol-2-yl]-[6-(difluoromethoxy)-3-pyridyl]amino]propanamide] was tested, and the IC50 was 0.059 µM.
Compound `CC(C(N)=O)N(c1ccc(Cl)c(F)c1)c1nc(N)c(C(=O)c2ccc(OC(F)F)cc2)s1` (single isomer, unassigned) [Example 48.1, 2-(N-[4-amino-5-[4-(difluoromethoxy)benzoyl]thiazol-2-yl]-4-chloro-3-fluoro-anilino)propanamide] has an IC50 of 0.00176 µM.
For `CCOC(=O)C(C)(C)Oc1ccc(C(=O)c2sc(N(c3ccc(F)cc3)C(C)C(N)=O)nc2N)cc1` (racemic) [Example 39, Rac-ethyl 2-[4-[4-amino-2-(N-[2-amino-1-methyl-2-oxo-ethyl]-4-fluoro-anilino)thiazole-5-carbonyl]phenoxy]-2-methyl-propanoate], the IC50 was 0.019 µM.
`CC(C(N)=O)N(c1ccc(F)c(F)c1)c1nc(N)c(C(=O)c2cccnc2)s1` (single isomer, unassigned) [Example 184.2, 2-(N-[4-amino-5-(pyridine-3-carbonyl)thiazol-2-yl]-3,4-difluoro-anilino)propanamide] was tested, and the IC50 was > 20 µM.
`Cc1ccc(N(c2nc(N)c(C(=O)c3ccccc3)s2)C(C)C(N)=O)cn1` (racemic) [Example 234, rac-2-[(4-amino-5-benzoyl-thiazol-2-yl)-(6-methyl-3-pyridyl)amino]propanamide] gave an IC50 of 1.64 µM.
Compound `CC(C(N)=O)N(c1ccc(Cl)cc1)c1nc(N)c(C(=O)c2ccc(Cl)cc2)s1` (racemic) [Example 41, rac-2-(N-[4-amino-5-(4-chlorobenzoyl)thiazol-2-yl]-4-chloro-anilino)propanamide] has an IC50 of 0.0135 µM.
`CC(C(N)=O)N(c1ccc(F)cc1)c1nc(N)c(C(=O)c2ccc(OCC(=O)NCc3nc4ccccc4[nH]3)cc2)s1` (racemic) [Example 98, rac-2-(N-[4-amino-5-[4-[2-(1H-benzimidazol-2-ylmethylamino)-2-oxo-ethoxy]benzoyl]thiazol-2-yl]-4-fluoro-anilino)propanamide] was tested, and the IC50 was 0.0735 µM.
Work on `CC(C(N)=O)N(c1ccc(F)cc1)c1nc(N)c(C(=O)c2ccc(S(C)(=O)=O)cc2)s1` (racemic) [Example 19, rac-2-(N-[4-amino-5-(4-methylsulfonylbenzoyl)thiazol-2-yl]-4-fluoro-anilino)propanamide] yielded an IC50 of 0.2 µM.
With `CC(C(N)=O)N(c1ccc(OCc2ccccc2)cc1)c1nc(N)c(C(=O)c2ccc(OC(F)F)cc2)s1` (racemic) [Example 182, rac-2-(N-[4-amino-5-[4-(difluoromethoxy)benzoyl]thiazol-2-yl]-4-benzyloxy-anilino)propanamide] the IC50 was 0.091 µM.
In the case of `COc1ccc(N(c2nc(N)c(C(=O)c3ccc(OC(F)F)cc3)s2)C(C)C(N)=O)cc1` (racemic) [Example 174, rac-2-(N-[4-amino-5-[4-(difluoromethoxy)benzoyl]thiazol-2-yl]-4-methoxy-anilino)propanamide], the IC50 is reported as 0.051 µM.
For `CC(C(N)=O)N(c1ccc(F)cc1)c1nc(N)c(C(=O)c2ccc(NC(=O)OCc3ccccc3)cc2)s1` (single isomer, unassigned) [Example 169.2, Benzyl N-[4-[4-amino-2-(N-(2-amino-1-methyl-2-oxo-ethyl)-4-fluoro-anilino)thiazole-5-carbonyl]phenyl]carbamate], the IC50 was 0.859 µM.
In the case of `COc1ccc(C(=O)c2sc(N(c3ccc(OC(F)F)nc3)C(C)C(N)=O)nc2N)cc1` (racemic) [Example 252, rac-2-[[4-amino-5-(4-methoxybenzoyl)thiazol-2-yl]-[6-(difluoromethoxy)-3-pyridyl]amino]propanamide], the IC50 is reported as 0.106 µM.
`Cc1ccccc1N(c1nc(N)c(C(=O)c2ccccc2)s1)C(C)C(N)=O` (single isomer, unassigned) [Example 77.2, 2-(N-(4-amino-5-benzoyl-thiazol-2-yl)-2-methyl-anilino)propanamide] gave an IC50 of 10.2 µM.
`CC(C(N)=O)N(c1ccc(F)cc1)c1nc(N)c(C(=O)c2ccc(N(C)C)cc2)s1` (racemic) [Example 180, rac-2-(N-[4-amino-5-[4-(dimethylamino)benzoyl]thiazol-2-yl]-4-fluoro-anilino)propanamide] showed an IC50 of 0.062 µM.
`CC(C(N)=O)N(c1ccc(F)cc1)c1nc(N)c(C(=O)c2ccc(OC(F)F)nc2)s1` (racemic) [Example 162, rac-2-(N-[4-amino-5-[6-(difluoromethoxy)pyridine-3-carbonyl]thiazol-2-yl]-4-fluoro-anilino)propanamide] was tested, and the IC50 was 0.022 µM.
`CC(C(N)=O)N(c1nc(N)c(C(=O)c2ccccc2)s1)c1c(F)cc(F)cc1F` (racemic) [Example 4, rac-2-(N-(4-amino-5-benzoyl-thiazol-2-yl)-2,4,6-trifluoro-anilino)propanamide] gave an IC50 of 0.833 µM.
`CC(=O)N1CCN(C(=O)COc2ccc(C(=O)c3sc(N(c4ccc(F)cc4)C(C)C(N)=O)nc3N)cc2)CC1` (racemic) [Example 114, rac-2-(N-[5-[4-[2-(4-acetylpiperazin-1-yl)-2-oxo-ethoxy]benzoyl]-4-amino-thiazol-2-yl]-4-fluoro-anilino)propanamide] showed an IC50 of 0.658 µM.
`Cc1ccc(C(=O)c2sc(N(c3ccc(F)cc3)C(C)C(N)=O)nc2N)cc1` (racemic) [Example 63, rac-2-(N-[4-amino-5-(4-methylbenzoyl)thiazol-2-yl]-4-fluoro-anilino)propanamide] gave an IC50 of 0.0339 µM.
For `CC(C(N)=O)N(c1ccc(F)cc1)c1nc(N)c(C(=O)c2ccc(OCC(=O)N3CCC(N(C)C)CC3)cc2)s1` (racemic) [Example 136, rac-2-(N-[4-amino-5-[4-[2-[4-(dimethylamino)-1-piperidyl]-2-oxo-ethoxy]benzoyl]thiazol-2-yl]-4-fluoro-anilino)propanamide], the IC50 was 0.74 µM.
Work on `CC(C(N)=O)N(c1ccc(F)c(F)c1)c1nc(N)c(C(=O)c2ccc(OCc3ccccc3)cc2)s1` (single isomer, unassigned) [Example 165.1, 2-(N-[4-amino-5-(4-benzyloxybenzoyl)thiazol-2-yl]-3,4-difluoro-anilino)propanamide] yielded an IC50 of 0.002 µM.
Work on `Cc1cccc(N(c2nc(N)c(C(=O)c3ccccc3)s2)C(C)C(N)=O)c1` (single isomer, unassigned) [Example 76.1, 2-(N-(4-amino-5-benzoyl-thiazol-2-yl)-3-methyl-anilino)propanamide] yielded an IC50 of 0.114 µM.
`CC(C(N)=O)N(c1ccc(F)cc1)c1nc(N)c(C(=O)c2ccc(OCC(=O)Nc3ccc(C#N)cc3)cc2)s1` (racemic) [Example 92, rac-2-(N-[4-amino-5-[4-[2-(4-cyanoanilino)-2-oxo-ethoxy]benzoyl]thiazol-2-yl]-4-fluoro-anilino)propanamide] showed an IC50 of 0.0167 µM.
With `CC(C(N)=O)N(c1ccc(F)c(F)c1)c1nc(N)c(C(=O)c2cccnc2)s1` (racemic) [Example 184, rac-2-(N-[4-amino-5-(pyridine-3-carbonyl)thiazol-2-yl]-3,4-difluoro-anilino)propanamide] the IC50 was 0.428 µM.
In the case of `CC(C(N)=O)N(c1ccc(OCc2ccccc2)cc1)c1nc(N)c(C(=O)c2ccccc2)s1` (racemic) [Example 199, rac-2-(N-(4-amino-5-benzoyl-thiazol-2-yl)-4-benzyloxy-anilino)propanamide], the IC50 is reported as 0.396 µM.
